Source: patent publication US20230278972A1, “SUBSTITUTED HALOALKYL SULFONANILIDE HERBICIDES” (FMC Corporation, priority 2020, published 2023)

Key:
Assay type in all cases: in vivo
[1] = system: barnyardgrass (Echinochloa crus-galli); experiment: Test A preemergence, barnyardgrass; conditions: Preemergence, 0 to 100 scale (0 no effect, 100 complete control)
Method in brief: (§1)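 Compounds in non-phytotoxic solvent with surfactant. Soil: loam/sand. Preemergence via directed soil spray after seeding; postemergence on seedlings 2–10 cm, one- to two-leaf.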

[2] = system: kochia (Bassia scoparia); experiment: Test A preemergence, kochia; conditions: Preemergence, 0 to 100 scale (0 no effect, 100 complete control)
Method in brief: as §1

[3] = system: ragweed (common ragweed, Ambrosia artemisiifolia); experiment: Test A preemergence, ragweed; conditions: Preemergence, 0 to 100 scale (0 no effect, 100 complete control)
Method in brief: as §1

[4] = system: Ryegrass, Italian (Italian ryegrass, Lolium multiflorum); experiment: Test A preemergence, Ryegrass, Italian; conditions: Preemergence, 0 to 100 scale (0 no effect, 100 complete control)
Method in brief: as §1

[5] = system: Foxtail, Giant (giant foxtail, Setaria faberi); experiment: Test A preemergence, Foxtail, Giant; conditions: Preemergence, 0 to 100 scale (0 no effect, 100 complete control)
Method in brief: as §1

[6] = system: pigweed (Amaranthus retroflexus); experiment: Test A preemergence, pigweed; conditions: 0 to 100 scale (0 no effect, 100 complete control)
Method in brief: (§2)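 Formulated with a surfactant in a non-phytotoxic solvent, compounds are applied to loam–sand pots, either to bare soil immediately after seeding (preemergence) or to seedlings of 2 to 10 cm bearing one to two leaves (postemergence).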

[7] = system: barnyardgrass (Echinochloa crus-galli); experiment: Test A postemergence, barnyardgrass; conditions: Postemergence, 0 to 100 scale (0 no effect, 100 complete control); for Plant response rating, Barnyardgrass: 125 g ai/ha; for Barnyardgrass plant response rating: 500 g ai/ha, visual injury vs untreated controls after approx. 10 days
Method in brief: as §2

[8] = system: kochia (Bassia scoparia); experiment: Test A postemergence, kochia; conditions: Postemergence, 0 to 100 scale (0 no effect, 100 complete control); for Plant response rating, Kochia: 125 g ai/ha; for Kochia plant response rating: 500 g ai/ha, visual injury vs untreated controls after approx. 10 days
Method in brief: as §1

[9] = system: ragweed (common ragweed, Ambrosia artemisiifolia); experiment: Test A postemergence, ragweed; conditions: Postemergence, 0 to 100 scale (0 no effect, 100 complete control); for Plant response rating, Ragweed: 125 g ai/ha; for Ragweed plant response rating: 500 g ai/ha, visual injury vs untreated controls after approx. 10 days
Method in brief: as §1

[10] = system: Ryegrass, Italian (Italian ryegrass, Lolium multiflorum); experiment: Test A postemergence, Ryegrass, Italian; conditions: Postemergence, 0 to 100 scale (0 no effect, 100 complete control); for Plant response rating, Ryegrass, Italian: 125 g ai/ha; for Ryegrass, Italian plant response rating: 500 g ai/ha, visual injury vs untreated controls after approx. 10 days
Method in brief: as §1

[11] = system: Foxtail, Giant (giant foxtail, Setaria faberi); experiment: Test A postemergence, Foxtail, Giant; conditions: Postemergence, 0 to 100 scale (0 no effect, 100 complete control); for Plant response rating, Foxtail, Giant: 125 g ai/ha; for Foxtail, Giant plant response rating: 500 g ai/ha, visual injury vs untreated controls after approx. 10 days
Method in brief: as §1

[12] = system: pigweed (Amaranthus retroflexus); experiment: Test A postemergence, pigweed; conditions: Postemergence, 0 to 100 scale (0 no effect, 100 complete control); for Plant response rating, Pigweed: 125 g ai/ha; for Pigweed plant response rating: 500 g ai/ha, visual injury vs untreated controls after approx. 10 days
Method in brief: as §1

[13] = system: wheat (Triticum aestivum); experiment: Test A postemergence, wheat; conditions: Postemergence, 0 to 100 scale (0 no effect, 100 complete control); for Plant response rating, Wheat: 125 g ai/ha; for Wheat plant response rating: 500 g ai/ha, visual injury vs untreated controls after approx. 10 days
Method in brief: as §2

[14] = system: corn (Zea mays); experiment: Test A postemergence, corn; conditions: Postemergence, 0 to 100 scale (0 no effect, 100 complete control); for Plant response rating, Corn: 125 g ai/ha; for Corn plant response rating: 500 g ai/ha, visual injury vs untreated controls after approx. 10 days
Method in brief: as §1

[15] = system: blackgrass (Alopecurus myosuroides); experiment: Test A postemergence, blackgrass; conditions: Postemergence, 0 to 100 scale (0 no effect, 100 complete control); for Plant response rating, Blackgrass: 125 g ai/ha; for Blackgrass plant response rating: 500 g ai/ha, visual injury vs untreated controls after approx. 10 days
Method in brief: as §1

[16] = system: galium (catchweed bedstraw, Galium aparine); experiment: Test A postemergence, galium; conditions: Postemergence, 0 to 100 scale (0 no effect, 100 complete control); for Plant response rating, Galium: 125 g ai/ha; for Galium plant response rating: 500 g ai/ha, visual injury vs untreated controls after approx. 10 days
Method in brief: as §2

[17] = 125 g ai/ha, visual injury, approx. 10 days

| Structure (SMILES) | Plant response rating, Barnyardgrass [1, 17] | Plant response rating, Barnyardgrass ([1]; 500 g ai/ha) | Plant response rating, Kochia [2, 17] | Plant response rating, Kochia ([2]; 500 g ai/ha) | Plant response rating, Ragweed [3, 17] | Plant response rating, Ragweed ([3]; 500 g ai/ha) | Plant response rating, Ryegrass, Italian [4, 17] | Plant response rating, Ryegrass, Italian ([4]; 500 g ai/ha) | Plant response rating, Foxtail, Giant [5, 17] | Plant response rating, Foxtail, Giant ([5]; 500 g ai/ha) | Plant response rating, Pigweed [6, 17] | Plant response rating, Pigweed ([6]; 500 g ai/ha) | Plant response rating, Barnyardgrass [7] | Barnyardgrass plant response rating [7] | Plant response rating, Kochia [8] | Kochia plant response rating [8] | Plant response rating, Ragweed [9] | Ragweed plant response rating [9] | Plant response rating, Ryegrass, Italian [10] | Ryegrass, Italian plant response rating [10] | further results |
| --- | --- | --- | --- | --- | --- | --- | --- | --- | --- | --- | --- | --- | --- | --- | --- | --- | --- | --- | --- | --- | --- |
| Cc1cc(Cl)c(NS(=O)(=O)C(F)(F)F)cc1C1=NOC2(CCCC2)C1 [Compound 204] | 90 | 90 | 40 | 90 | 10 | 90 | 90 | 100 | 80 | 100 | 90 | 100 | 0 | 80 | 30 | 70 | 20 | 80 | 40 | 50 | Plant response rating, Foxtail, Giant [11]: 10; Foxtail, Giant plant response rating [11]: 60; Plant response rating, Pigweed [12]: 20; Pigweed plant response rating [12]: 70; Plant response rating, Wheat [13]: 50; Wheat plant response rating [13]: 70; Plant response rating, Corn [14]: 10; Corn plant response rating [14]: 50; Plant response rating, Blackgrass [15]: 0; Blackgrass plant response rating [15]: 40; Plant response rating, Galium [16]: 50; Galium plant response rating [16]: 80 |
| Cc1cc(C)c(C2=NOC(C)(C)C2)cc1NS(=O)(=O)C(F)(F)F [Compound 206] | 90 | 90 | 80 | 90 | 40 | 80 | 80 | 90 | 80 | 90 | 90 | 100 | 60 | 80 | 20 | 70 | 60 | 90 | 50 | 90 | Plant response rating, Foxtail, Giant [11]: 50; Foxtail, Giant plant response rating [11]: 60; Plant response rating, Pigweed [12]: 60; Pigweed plant response rating [12]: 70; Plant response rating, Wheat [13]: 60; Wheat plant response rating [13]: 80; Plant response rating, Corn [14]: 0; Corn plant response rating [14]: 70; Plant response rating, Blackgrass [15]: 50; Blackgrass plant response rating [15]: 50; Plant response rating, Galium [16]: 70; Galium plant response rating [16]: 80 |
| Cc1cc(C)c(N(S(=O)(=O)C(F)(F)F)S(=O)(=O)C(F)(F)F)cc1C1=NOC2(CCCC2)C1 [Compound 208] | 90 | 90 | 90 | 90 | 0 | 0 | 70 | 80 | 90 | 100 | 60 | 70 | 0 | 30 | 10 | 30 | 20 | 20 | 0 | 40 | Plant response rating, Foxtail, Giant [11]: 0; Foxtail, Giant plant response rating [11]: 40; Plant response rating, Pigweed [12]: 20; Pigweed plant response rating [12]: 50; Plant response rating, Wheat [13]: 0; Wheat plant response rating [13]: 50; Plant response rating, Corn [14]: 0; Corn plant response rating [14]: 20; Plant response rating, Blackgrass [15]: 0; Blackgrass plant response rating [15]: 20; Plant response rating, Galium [16]: 30; Galium plant response rating [16]: 70 |
| CCC1(CC)CC(c2cc(NS(=O)(=O)C(F)(F)F)c(C)cc2C)=NO1 [Compound 209] | 40 | 90 | 0 | 80 | 0 | 60 | 50 | 90 | 20 | 70 | 0 | 50 | 20 | 70 | 20 | 40 | 40 | 60 | 40 | 90 | Plant response rating, Foxtail, Giant [11]: 0; Foxtail, Giant plant response rating [11]: 10; Plant response rating, Pigweed [12]: 30; Pigweed plant response rating [12]: 50; Plant response rating, Wheat [13]: 0; Wheat plant response rating [13]: 0; Plant response rating, Corn [14]: 0; Corn plant response rating [14]: 30; Plant response rating, Blackgrass [15]: 20; Blackgrass plant response rating [15]: 30; Plant response rating, Galium [16]: 70; Galium plant response rating [16]: 80 |
| Cc1cc(C)c(N(S(=O)(=O)C(F)(F)F)S(=O)(=O)C(F)(F)F)cc1C(=O)N1CCC(F)(F)CC1 [Compound 210] | 90 | 100 | 30 | 90 | 80 | 90 | 50 | 100 | 90 | 100 | 100 | 100 | 20 | 90 | 50 | 90 | 80 | 90 | 20 | 40 | Plant response rating, Foxtail, Giant [11]: 0; Foxtail, Giant plant response rating [11]: 30; Plant response rating, Pigweed [12]: 60; Pigweed plant response rating [12]: 100; Plant response rating, Wheat [13]: 0; Wheat plant response rating [13]: 60; Plant response rating, Corn [14]: 10; Corn plant response rating [14]: 40; Plant response rating, Blackgrass [15]: 0; Blackgrass plant response rating [15]: 0; Plant response rating, Galium [16]: 80; Galium plant response rating [16]: 90 |
